Measured values reported in patent US20060247303A1, “7H-dibenzo[b,g][1,5]dioxocin-5-one derivatives and use thereof” (BAYER HEALTHCARE AG, priority 2002, published 2006).

Biological target: T1, CETP (Homo sapiens, UniProt P11597)
T1 construct: enriched CETP fraction, obtained from human plasma by means of hydrophobic chromatography; from tissue; host or cells: human plasma
T1 sequence (P11597 18-493): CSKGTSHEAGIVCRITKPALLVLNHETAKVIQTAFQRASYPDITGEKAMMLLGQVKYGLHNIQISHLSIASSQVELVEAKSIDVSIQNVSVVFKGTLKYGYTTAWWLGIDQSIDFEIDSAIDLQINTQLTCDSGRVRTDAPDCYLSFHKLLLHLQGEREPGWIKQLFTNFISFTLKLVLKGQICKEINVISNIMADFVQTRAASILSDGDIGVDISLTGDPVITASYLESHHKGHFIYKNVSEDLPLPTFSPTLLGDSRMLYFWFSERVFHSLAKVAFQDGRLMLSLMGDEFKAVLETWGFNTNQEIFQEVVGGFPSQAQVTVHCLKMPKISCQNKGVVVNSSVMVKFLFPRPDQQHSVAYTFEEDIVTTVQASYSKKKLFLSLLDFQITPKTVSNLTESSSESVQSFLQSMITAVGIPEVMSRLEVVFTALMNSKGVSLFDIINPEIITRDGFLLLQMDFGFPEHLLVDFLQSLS
Assay: CETP fluorescence test
Format: biochemical
Conditions: CETP from human plasma, transfer of fluorescent cholesterol ester between liposomes, 37° C., 4 hours; read-out: IC50 [nM] Fluor. test
Procedure: CETP is obtained in partially purified form from human plasma by differential centrifugation and column chromatography and used for the test. To this end, human plasma is adjusted to a density of 1.21 g per ml using NaBr and centrifuged at 4° C. at 50 000 rpm for 18 h. The bottom fraction (d>1.21 g/ml) is applied to a Sephadex® Phenyl-Sepharose 4B (Pharmacia) column, washed with 0.15 M NaCl/0.001 M tris HCl pH 7.4 and then eluted with distilled water. The CETP-active fractions are pooled, dialysed against 50 mM sodium acetate pH 4.5 and applied to a CM-Sepharose® column (Pharmacia). The mixture is then eluted using a linear gradient (0-1 M NaCl). The pooled CETP fractions are dialysed against 10 mM Tris HCl pH 7.4 and then further purified by chromatography on a Mono Q® column (Pharmacia).
Measurement of the CETP-catalysed transfer of a fluorescent cholesterol ester between liposomes—modified according to the procedure of Bisgaier et al., J. Lipid Res. 34, 1625 (1993):
For the production of the donor liposomes, 1 mg of cholesteryl 4,4-difluoro-5,7-dimethyl-4-bora-3a,4a-diaza-s-indacene-3-dodecanoate (cholesteryl BODIPY® FL C12, Molecular Probes) is dissolved in 600 μl of dioxane with 5.35 mg of triolein and 6.67 mg of phosphatidylcholine with gentle warming in an ultrasonic bath and this solution is added very slowly with ultrasonication to 63 ml of 50 mM tris/HCl, 150 mM NaCl, 2 mM EDTA buffer pH 7.3 at RT.
The suspension is then ultrasonicated under an N2 atmosphere for 30 minutes in the Braukson ultrasonic bath at about 50 watts, the temperature being kept at about 20° C.
The acceptor liposomes are obtained analogously from 86 mg of cholesteryl oleate, 20 mg of triolein and 100 mg of phosphatidylcholine dissolved in 1.2 ml of dioxane and 114 ml of above buffer by ultrasonication at 50 watts (20° C.) for 30 minutes.
For testing, a test mix consisting of 1 part of above buffer, 1 part of donor liposomes and 2 parts of acceptor liposomes is used.
80 μl of test mix are treated with 1-3 μg of enriched CETP fraction, obtained from human plasma by means of hydrophobic chromatography, and 2 μl of the substance to be investigated in DMSO and incubated at 37° C. for 4 hours.
The change in the fluorescence at 485/535 nm is a measure of the CE transfer; the inhibition of the transfer in comparison to the control batch without substance is determined.

Going from `COc1c(C(O)CC(C)C)ccc2c1C(=O)OCc1c(F)c(C)cc(OCCC(C)C)c1O2` (centres unmarked) [Example A-64] to `COc1c([C@@H](O)CC(C)C)ccc2c1C(=O)OCc1c(C#N)c(C)cc(OCCC(C)C)c1O2` [Example A-78, 9-[(1S)-1-Hydroxy-3-methylbutyl]-1-(isopentyloxy)-8-methoxy-3-methyl-7-oxo-5H,7H-dibenzo[b,g][1,5]dioxocin-4-carbonitrile], the IC50 rises from 500 nM to 3000 nM (6-fold).

`COc1c(C(O)CC(C)C)ccc2c1C(=O)OCc1cc(C)cc(CCC3CCCC3)c1O2` (centres unmarked) [Example A-70, 11-(2-Cyclopentylethan-1-yl)-3-(1-hydroxy-3-methylbutyl)-4-methoxy-9-methyl-5H,7H-dibenzo[b,g][1,5]dioxocin-5-one] and `COc1c(C(O)CC(C)C)ccc2c1C(=O)OCc1cc(C)cc(C#CCC(C)C)c1O2` (centres unmarked) [Example A-63] are the same in IC50: 2000 nM for the first, 2000 nM for the second.

First: COc1c([C@@H](O)CC(C)C)ccc2c1C(=O)OCc1c(Br)c(C)c(Br)c(OCCCC(F)(F)F)c1O2 [Example B-1, 8,10-Dibromo-3-[(1S)-1-hydroxy-3-methylbutyl]-4-methoxy-9-methyl-11-(4,4,4-trifluorobutoxy)-5H,7H-dibenzo[b,g][1,5]dioxocin-5-one]
Second: COc1c([C@@H](O)CC(C)C)ccc2c1C(=O)OCc1c(Cl)c(C)c(Br)c(OC(=O)C3CCC3)c1O2 [Example B-50]
The IC50 of the first is 4-fold higher: 1000 nM for the first, 250 nM for the second. The second is the more potent here.

Compared with `COc1c([C@@H](O)CC(C)C)ccc2c1C(=O)OCc1cc(C)cc(OCC3CC4C=CC3C4)c1O2` (stereo partly drawn) [Example B-5, 3-[(1S)-1-Hydroxy-3-methylbutyl]-4-methoxy-9-methyl-11-(bicyclo[2.2.1]hept-5-en-2-ylmethoxy)-5H,7H-dibenzo[b,g][1,5]dioxocin-5-one], `COc1c([C@@H](O)CC(C)C)ccc2c1C(=O)OCc1cc(C)cc(OS(=O)(=O)C(C)C)c1O2` [Example A-42, 9-[(1S)-1-Hydroxy-3-methylbutyl]-8-methoxy-3-methyl-7-oxo-5H,7H-dibenzo[b,g]-[1,5]-dioxocin-1-yl 2-propanesulphonate] is 2.1-fold lower in IC50: 1500 nM for the first, 700 nM for the second. The second is the more potent here.

`COc1c([C@@H](O)CC(C)C)ccc2c1C(=O)OCc1c(C)c(C)c(C)c(OC(=O)C(C)(C)C)c1O2` [Example A-35] and `COc1c([C@@H](O)CC(C)C)ccc2c1C(=O)OCc1c(Cl)c(C)c(Cl)c(OC(=O)C(C)(C)C)c1O2` [Example A-47] are the same in IC50: 200 nM for the first, 200 nM for the second.

First: COc1c([C@@H](O)CC(C)C)ccc2c1C(=O)OC(C)c1cc(C)cc(OC(=O)C3(C)C4CCC3CC4)c1O2 (some centres unmarked) [Example C-120]
Second: COc1c(C(O)CC(C)C)ccc2c1C(=O)OCc1c(F)c(C)c(C)c(OC(=O)C3(C)C4CCC3CC4)c1O2 (centres unmarked) [Example C-128]
The IC50 of the first is 1.8-fold higher: 100 nM for the first, 55 nM for the second.

Compared with `CCc1c(C)cc2c(c1OC(=O)[C@@]1(C)C[C@H]3CC[C@@H]1C3)Oc1ccc([C@@H](O)CC(C)C)c(OC)c1C(=O)OC2` [Example C-91], `COc1c([C@@H](O)CC(C)C)ccc2c1C(=O)OCc1cc(C)c(Cl)c(OC(=O)[C@@]3(C)C[C@H]4CC[C@@H]3C4)c1O2` [Example C-22] is 1.9-fold higher in IC50: 40 nM for the first, 75 nM for the second.

`COc1c([C@@H](O)CC(C)C)ccc2c1C(=O)OCc1cc(C)cc(OC(=O)C3(c4cccc(F)c4)CCCCC3)c1O2` [Example B-8] and `COc1c([C@@H](O)CC(C)C)ccc2c1C(=O)OCc1cc(C)cc(OC(=O)C3(C)CC3(F)F)c1O2` (some centres unmarked) [Example B-22] are within 1.5-fold of each other in IC50: 1000 nM for the first, 700 nM for the second.

Going from `COc1c([C@@H](O)CC(C)C)ccc2c1C(=O)OCc1c(Cl)c(C)c(Br)c(OC(=O)C3(C)CCCCC3)c1O2` [Example C-67] to `COc1c([C@@H](O)CC(C)C)ccc2c1C(=O)OCc1c(Cl)c(C)c(Br)c(OC(=O)C3(C)C4CCC3CC4)c1O2` (some centres unmarked) [Example C-37], the IC50 falls from 90 nM to 60 nM (1.5-fold).

`COc1c([C@@H](O)CC(C)C)ccc2c1C(=O)OC(C)c1cc(C)cc(OCCC(C)C)c1O2` (mixture of isomers) [Example A-80, [(1S)-1-Hydroxy-3-methylbutyl]-11-(isopentyloxy)-4-methoxy-7,9-dimethyl-5H,7H-dibenzo[b,g][1,5]dioxocin-5-one] and `COc1c([C@@H](O)CC(C)C)ccc2c1C(=O)OCc1cc(C(F)F)cc(OCCC(C)C)c1O2` [Example B-176, 9-(Difluoromethyl)-3-[(1S)-1-hydroxy-3-methylbutyl]-11-(isopentyloxy)-4-methoxy-5H,7H-dibenzo[b,g][1,5]dioxocin-5-one] are the same in IC50: 5000 nM for the first, 5000 nM for the second.

`COCc1c(C)c(Cl)c2c(c1OC(=O)C1(C)C3CCC1CC3)Oc1ccc([C@@H](O)CC(C)C)c(OC)c1C(=O)OC2` (some centres unmarked) [Example C-66] and `CCc1c(C)c(Cl)c2c(c1OC(=O)C1(C)C3CCC1CC3)Oc1ccc([C@@H](O)CC(C)C)c(OC)c1C(=O)OC2` (some centres unmarked) [Example C-65] are the same in IC50: 50 nM for the first, 50 nM for the second.

`COc1c([C@@H](O)CC(C)C)ccc2c1C(=O)OCc1c(Cl)c(C)c(C)c(OC(=O)[C@@]3(C)C[C@H]4CC[C@@H]3C4)c1O2` [Example C-47] and `COc1c([C@@H](O)CC(C)C)ccc2c1C(=O)OCc1c(Br)c(C)c(Cl)c(OC(=O)[C@@]3(C)C[C@H]4CC[C@@H]3C4)c1O2` [Example C-21] are within 1.5-fold of each other in IC50: 50 nM for the first, 70 nM for the second.

`COc1c(C(O)CC(C)(C)C)ccc2c1C(=O)OCc1c(Cl)c(C)c(C3CC3)c(OC(=O)C3(C)C4CCC3CC4)c1O2` (centres unmarked) [Example C-62] and `COc1c([C@@H](O)CC(C)C)ccc2c1C(=O)OCc1c(C)c(C)c(C)c(OC(=O)C3(C)C4CCC3CC4)c1O2` (some centres unmarked) [Example C-82] are the same in IC50: 60 nM for the first, 60 nM for the second.

Compared with `COc1c([C@@H](O)CC(C)C)ccc2c1C(=O)OCc1c(Cl)c(C)cc(OC(=O)C(C)(C)CF)c1O2` [Example B-42], `COc1c(C(O)CC(C)(C)C)ccc2c1C(=O)OCc1cc(C)cc(OCCC(C)C)c1O2` (centres unmarked) [Example A-55, 3-(1-Hydroxy-3,3-dimethylbutyl)-11-(isopentyloxy)-4-methoxy-9-methyl-5H,7H-dibenzo[b,g][1,5]dioxocin-5-one] is 5-fold higher in IC50: 300 nM for the first, 1500 nM for the second. The first is the more potent here.

`COc1c([C@@H](O)CC(C)C)ccc2c1C(=O)OCc1c(Cl)c(C)c(Cl)c(OC(=O)N3CC4CCC(C3)O4)c1O2` [Example B-165] was tested, and the IC50 was 300 nM.
